From PMC10600185, “Development and pharmaceutical investigation of novel cervical cancer-targeting and redox-responsive melittin conjugates” (Scientific Reports, 2023)
In brackets after ≈: the same amount, converted by molar mass.

How the values were obtained:
HeLa cells = assay: ROS assay (DCFDA), HeLa; type: cell-based, human; conditions: 200 µM TBHP positive control, Ex/Em 485/535 nm, data not shown
Method: (§1) To evaluate the ROS activity of peptide/conjugates, a ROS kit (DCFDA/H2DCFDA—Cellular ROS Assay Kit, Abcam) was applied to C33A, HeLa, and Normal Skin Human Fibroblast cells. 25,000 cells/well were seeded on a flat-bottom 96-well plate and incubated at 37 °C and 5% CO2. After 24 h, the media was discarded, and the wells were washed with 1 × buffer. DCFDA was then added to wells (except for non-stained control cells) and all plates were incubated for 45 min at 37 °C and 5% CO2 in the dark. […] A positive control (TBHP) was also applied. The results were assessed using a microplate reader (Varioskan Flash, Thermo Scientific) at Ex/Em: 485/535 nm. The negative control (non-stained cells) was subtracted from the cell control and drug samples for calculation.

C33A cells = assay: ROS assay (DCFDA), C33A; type: cell-based, human; conditions: 200 µM TBHP positive control, Ex/Em 485/535 nm, data not shown
Method: as §1

NSF cells = assay: ROS assay (DCFDA), NSF; type: cell-based, human; conditions: 200 µM TBHP positive control, Ex/Em 485/535 nm, data not shown
Method: as §1

[1] = HPLC % ACN at elution as measure of hydrophobicity; type: physicochemical; conditions: semi-preparative RP-HPLC, C-18 column; for HPLC gradient (ACN %) of the purified peak: 0–100% ACN (0.025% TFA) gradient, 30 min for FA conjugates, 40 min for Target conjugates, % ACN used as hydrophobicity
Method: The peptide/conjugate was purificated and analyzed (data not shown) using HPLC (Agilent Technologies, USA) with C-18 column (RPC 250 × 10 mm ID hydrophobic 6 µm, Agilent VariTide). For the CM–FA and MC–FA conjugates’ purification, we used a 0–100% ACN (0.025% TFA) gradient for 30 min, and for the CM–Target, and MC–Target conjugates, we used a 0–100% ACN (0.025% TFA) gradient for 40 min. Peptide methods for HPLC purification are provided in Supp. Data 1. A Nicolet iS10 FT-IR was used to obtain infrared spectra of the peptide/conjugates in the range of 4000–500 cm^−1. The chemical structure of the peptide/conjugates was characterized by proton nuclear resonance (^1H NMR) spectroscopy using a 400-MHz Burker NMR spectrometer in DMSO-d6. To evaluate the molecular weight of the synthesized peptide, LC–MS/MS (6420 Triple Quad, Agilent Technologies) was used.

[2] = MTT cytotoxicity assay, 3T3; type: cell-based; conditions: mouse, 3T3 cells (embryonic fibroblasts), 24 h treatment, serial dilutions 256–1 µg/mL, concentration by modified Mel peptide content, mean of three replicates
Method: (§2) C-33A ([…], ATCC), HeLa ([…], ATCC), 3T3 (CRL-1658™, ATCC), Normal Skin Fibroblast (CRL-2091™, ATCC) and MCF-7 (HTB-22™, ATCC) cell lines were cultured in complete EMEM, DMEM, DMEM, EMEM, and EMEM (containing 1% Pen/Strep antibiotic and 10% FBS), respectively. Cells from the different lines were seeded at a density of 5 × 10^4 cells/well in 100 µL medium placed in a flat-bottom 96-well plate and incubated at 5% CO2 and 37 °C. After 24 h, the medium was discarded from the 96-well plate. Serial dilutions of peptide/conjugate (i.e., 256–1 µg/mL) were prepared in triplicate in 100 µL complete medium then added onto each well and incubated at 5% CO2 and 37 °C for 24 h. The cytotoxicity was determined by MTT test (MTT, Cell Proliferation Kit, Roche) and measured at 550–690 nm on a microplate reader. The cell cytotoxicity was calculated with respect to control groups treated with only complete medium.

[3] = MTT cytotoxicity assay, NSF; type: cell-based; conditions: human, normal skin fibroblast (NSF) cells, 24 h treatment, serial dilutions 256–1 µg/mL, concentration by modified Mel peptide content, mean of three replicates
Method: as §2

human red blood cells = assay: Hemolytic activity; type: cell-based; conditions: human erythrocytes in tris-saline pH 7.2, 256–4 µg/mL, 37 °C, 1 h, absorbance 414 nm, triplicate
Method: 30 µL of fresh human blood was added to 10 mL of autoclaved tris-saline (10 mM tris, 150 mM NaCl, pH 7.2) and centrifuged at 1500 rpm for 5 min three times. 100 µL of the blood mix was added to each well of a round-bottom 96-well plate. Concentrations of freshly prepared peptide/conjugate (i.e., ranging from 256–4 µg/mL) in tris-saline (100 µL of total volume) were added to the 96-well plate containing the blood mix and the plate kept at 37 °C for 1 h. Triton X-100 in 10% DMSO-treated blood mix and blood mix without addition were used as positive and negative controls, respectively. Next, the plate was centrifuged for 10 min at 1500 rpm. The supernatants were taken into a new round-bottom 96-well plate and measured at 414 nm using a microplate reader. All samples were used as a triplicate.

S. aureus 25923 = assay: Minimum inhibitory concentration, S. aureus; type: cell-based, Staphylococcus aureus; design: key: No inhibitory effects were observed at any of the concentrations tested in the areas marked “X” and bacterial growth was seen; conditions: MHB, two-fold dilutions 1024–0.5 µg/mL, 37 °C overnight, OD 600 nm
Method: (§3) The MIC of the conjugates on E. coli and S. aureus were determined. 95 µL of the MHB containing serial two-fold dilutions of each peptide/conjugate were added to a round-bottom 96-well plate from a maximum concentration of 1024 µg/mL to 0.5 µg/mL. Bacterial samples were taken from an exponentially growing culture in MHB and adjusted to 1.5 × 10^6 CFU/mL. 5 µL of the prepared bacterial suspension was added to each well and incubated at 37 °C, overnight. The bacterial growth was measured using a microplate reader (Gen5 Synergy HT, Biotek) at 600 nm. Broth containing only bacteria was used as a positive control while broth without bacteria was used as a negative control.

E. coli 25922 = assay: Minimum inhibitory concentration, E. coli; type: cell-based, Escherichia coli; design: key: No inhibitory effects were observed at any of the concentrations tested in the areas marked “X” and bacterial growth was seen; conditions: MHB, two-fold dilutions 1024–0.5 µg/mL, 37 °C overnight, OD 600 nm
Method: as §3

cell lines = assay: Cytotoxicity of the targeting peptide alone on the cell lines; type: cell-based; conditions: tested alone on cell lines, data not shown
Method: as §2

Row | Compound | HPLC gradient (ACN %) of the purified peak [1] | IC50 at 24 h [2] | IC50 at 24 h [3] | also measured
1 | CC(C)(C)OO [TBHP] |  |  |  | ROS level, HeLa (HeLa cells): 51.26 RFU; ROS level, C33A (C33A cells): 60.70 RFU; ROS level, NSF (NSF cells): 36.46 RFU
2 | CC[C@H](C)[C@H](NC(=O)CNC(=O)[C@@H](N)CS)C(=O)NCC(=O)N[C@@H](C)C(=O)N[C@H](C(=O)N[C@@H](CC(C)C)C(=O)N[C@@H](CCCCN)C(=O)N[C@H](C(=O)N[C@@H](CC(C)C)C(=O)N[C@H](C(=O)N[C@H](C(=O)NCC(=O)N[C@@H](CC(C)C)C(=O)N1CCC[C@H]1C(=O)N[C@@H](C)C(=O)N[C@@H](CC(C)C)C(=O)N[C@H](C(=O)N[C@@H](CO)C(=O)N[C@@H](Cc1c[nH]c2ccccc12)C(=O)N[C@H](C(=O)N[C@@H](CCCCN)C(=O)N[C@@H](CCCNC(=N)N)C(=O)N[C@@H](CCCCN)C(=O)N[C@@H](CCCNC(=N)N)C(=O)N[C@@H](CCC(N)=O)C(=O)N[C@@H](CCC(N)=O)C(N)=O)[C@@H](C)CC)[C@@H](C)CC)[C@@H](C)O)[C@@H](C)O)C(C)C)C(C)C [C-Mel] | 77–79% | 84 µg/mL (≈ 28.5 µM) | 53.4 µg/mL (≈ 18.1 µM) | Hemotoxicity ranking among peptides/conjugates (human red blood cells): highest hemotoxicity
3 | CC[C@H](C)[C@H](NC(=O)CN)C(=O)NCC(=O)N[C@@H](C)C(=O)N[C@H](C(=O)N[C@@H](CC(C)C)C(=O)N[C@@H](CCCCN)C(=O)N[C@H](C(=O)N[C@@H](CC(C)C)C(=O)N[C@H](C(=O)N[C@H](C(=O)NCC(=O)N[C@@H](CC(C)C)C(=O)N1CCC[C@H]1C(=O)N[C@@H](C)C(=O)N[C@@H](CC(C)C)C(=O)N[C@H](C(=O)N[C@@H](CO)C(=O)N[C@@H](Cc1c[nH]c2ccccc12)C(=O)N[C@H](C(=O)N[C@@H](CCCCN)C(=O)N[C@@H](CCCNC(=N)N)C(=O)N[C@@H](CCCCN)C(=O)N[C@@H](CCCNC(=N)N)C(=O)N[C@@H](CCC(N)=O)C(=O)N[C@@H](CCC(N)=O)C(N)=O)[C@@H](C)CC)[C@@H](C)CC)[C@@H](C)O)[C@@H](C)O)C(C)C)C(C)C [Mel, Melittin] | 63–72% |  |  | Hydrophobicity as % ACN at elution ([1]; ACN (0.025% TFA) gradient): 67 % ACN
4 | CKQNLAEG [Targeting peptide, CSP-KQ peptide (CKQNLAEG), specific to cervical squamous cell carcinoma tissue] | 53–57% |  |  | Minimum inhibitory concentration, S. aureus 25923 (S. aureus 25923): X; Minimum inhibitory concentration, E. coli 25922 (E. coli 25922): X; Toxicity of the peptide alone on cell lines (cell lines): non-toxic
5 | CC[C@H](C)[C@H](NC(=O)CN)C(=O)NCC(=O)N[C@@H](C)C(=O)N[C@H](C(=O)N[C@@H](CC(C)C)C(=O)N[C@@H](CCCCN)C(=O)N[C@H](C(=O)N[C@@H](CC(C)C)C(=O)N[C@H](C(=O)N[C@H](C(=O)NCC(=O)N[C@@H](CC(C)C)C(=O)N1CCC[C@H]1C(=O)N[C@@H](C)C(=O)N[C@@H](CC(C)C)C(=O)N[C@H](C(=O)N[C@@H](CO)C(=O)N[C@@H](Cc1c[nH]c2ccccc12)C(=O)N[C@H](C(=O)N[C@@H](CCCCN)C(=O)N[C@@H](CCCNC(=N)N)C(=O)N[C@@H](CCCCN)C(=O)N[C@@H](CCCNC(=N)N)C(=O)N[C@@H](CCC(N)=O)C(=O)N[C@@H](CCC(N)=O)C(=O)N[C@@H](CS)C(N)=O)[C@@H](C)CC)[C@@H](C)CC)[C@@H](C)O)[C@@H](C)O)C(C)C)C(C)C [Mel-C] | 77–79% | 130 µg/mL (≈ 44.2 µM) | 43.7 µg/mL (≈ 14.8 µM) | 
